Common to all, as to assay type: in vivo
In test [1] the test system is eyes. Kind of test: Topical ocular composition (Example 212), allergic symptoms.
Test [2] deals with patient suffering from glaucoma. Kind of test: Topical ocular composition (Example 212) lowering intraocular pressure. How it is done: Examples of such assays are described in the following reference, incorporated herein by reference: C. Liljebris, G. Selen, B. Resul, J. Sternschantz, and U. Hacksell, “Derivatives of 17-Phenyl-18,19,20-trinorprostaglandin F2α Isopropyl Ester: Potential Anti-glaucoma Agents”, Journal of Medicinal Chemistry, Vol. 38 (2) 1995, pp. 289-304.
(§1) Topical pharmaceutical compositions for lowering intraocular pressure are prepared by conventional methods and formulated as follows: […]
(§2) A compound according to this invention is used as the 6-aminoisoquinoline derivative. […]

The test system of test [3] is eyes. Kind of test: Topical ocular composition (Example 212), neuroprotective agent. The conditions noted are these: composition of Example 212 (0.50 wt %), as a drop 4 times per day. How it is done: as §1, §2
The subject of test [4] is eyes. Description: Topical ocular composition (Example 212), hyperemia, redness and ocular irritation. The following applies: composition of Example 212 (0.50 wt %), as a drop as needed.
In test [5] the test system is eyes. Description: Topical ocular composition (Example 212), dry eye syndrome. The conditions noted are these: composition of Example 212 (0.50 wt %), as a drop twice per day.
Where [6] appears, read: composition of Example 212 (0.50 wt %), as a drop twice per day.
Where [7] appears, read: composition of Example 212/213 (0.50 wt %), as a drop twice a day or as needed.

Each structure is given as a SMILES string. Counter-ions that a name gives are not always drawn.

Regarding `O=C(NCc1ccccc1)Nc1ccc2cnccc2c1` [Example E88, 1-benzyl-3-(isoquinolin-6-yl)urea], in test [1] (composition of Example 212/213 (0.50 wt %), as a drop as needed), the “decrease of allergic symptoms” value is on record as “substantially decreases allergic symptoms”.

Regarding `N[C@@H](CSCC(C(=O)c1ccc(/C=C/C(=O)Nc2ccc3cnccc3c2)cc1)c1ccccc1)C(=O)O` (stereo partly drawn) [Example E207, (2R)-2-amino-3-(3-(4-((E)-3-(isoquinolin-6-ylamino)-3-oxoprop-1-enyl)phenyl)-3-oxo-2-phenylpropylthio)propanoic acid], the “decrease of intraocular pressure” value in test [2] (composition of Example 212 (0.50 wt %), as a drop 4 times per day) was “substantially decreases intraocular pressure”. Moreover, in test [3], the neuroprotective agent entry is “serves as a neuroprotective agent”. With `CNC(=O)c1cccc(NCS(=O)(=O)Nc2ccc3cnccc3c2)c1` [Example E136, 3-((N-isoquinolin-6-ylsulfamoyl)methylamino)-N-methylbenzamide], the “decrease of intraocular pressure” value in test [2] (setting [6]) is on record as “substantially decreases intraocular pressure”. Turning to `NCC(=O)Nc1ccc2cnccc2c1` [Example E40, 2-amino-N-isoquinoline-6-yl-acetamide dihydrochloride], the “decrease of hyperemia, redness and ocular irritation” value in test [4] was “substantially decreases hyperemia, redness and ocular irritation”. For the molecule `CNC(=O)c1cccc(NCC(=O)Nc2ccc3cnccc3c2Cl)c1` [Example E119b, 3-(2-(5-chloroisoquinolin-6-ylamino)-2-oxoethylamino)-N-methyl benzamide], in test [2] (setting [7]), the “decrease of intraocular pressure” value is “substantially decreases intraocular pressure”. `O=C(CN1CCOCC1)Nc1ccc2cnccc2c1` [Example E105, N-(isoquinolin-6-yl)-2-morpholinoacetamide]: the “decrease of hyperemia, redness and ocular irritation” value in test [4] was “substantially decreases hyperemia, redness and ocular irritation”. As for `O=C(CCl)Nc1ccc2cnccc2c1` [Example E1, 2-chloro-N-(isoquinolin-6-yl) acetamide], the “decrease of allergic symptoms” value in test [1] (setting [6]) was “substantially decreases allergic symptoms”. For the same molecule, the “relief of dry eye syndrome” value in test [5] is “relieves dry eye syndrome”.

With `O=C(Nc1ccc2cnccc2c1)OCc1ccccc1` [Example E87, benzylisoquinolin-6-ylcarbamate], the “decrease of allergic symptoms” value in test [1] (setting [6]) was “substantially decreases allergic symptoms”. Moreover, the “relief of dry eye syndrome” value in test [5] is on record as “relieves dry eye syndrome”. For `O=C(Nc1ccncc1)c1ccc(C2CC2C(=O)Nc2ccc3cnccc3c2)cc1` (stereo not shown) [Example E118, 4-(2-(isoquinolin-6-ylcarbamoyl)cyclopropyl)-N-(pyridin-4-yl)benzamide], the “decrease of intraocular pressure” value in test [2] (setting [7]) was “substantially decreases intraocular pressure”. Regarding `O=C(CNCc1ccccc1)Nc1ccc2cnccc2c1` [Example E58, 2-(benzylamino)-N-(isoquinolin-6-yl)acetamide], the “decrease of intraocular pressure” value in test [2] (setting [6]) is “substantially decreases intraocular pressure”.

(Values after patent US8455647B2, “6-aminoisoquinoline compounds” (Aerie Pharmaceuticals, Inc., priority 2005, dated 2013).)
